The test deals with T1, glucosylceramide synthase (Homo sapiens, UniProt Q16739).
T1 construct: made in house; host or cells: Expi293F cells (transient expression, pcDNA3.3-TOPO vector); microsome fraction used as enzyme source
T1 sequence (Q16739 1-394): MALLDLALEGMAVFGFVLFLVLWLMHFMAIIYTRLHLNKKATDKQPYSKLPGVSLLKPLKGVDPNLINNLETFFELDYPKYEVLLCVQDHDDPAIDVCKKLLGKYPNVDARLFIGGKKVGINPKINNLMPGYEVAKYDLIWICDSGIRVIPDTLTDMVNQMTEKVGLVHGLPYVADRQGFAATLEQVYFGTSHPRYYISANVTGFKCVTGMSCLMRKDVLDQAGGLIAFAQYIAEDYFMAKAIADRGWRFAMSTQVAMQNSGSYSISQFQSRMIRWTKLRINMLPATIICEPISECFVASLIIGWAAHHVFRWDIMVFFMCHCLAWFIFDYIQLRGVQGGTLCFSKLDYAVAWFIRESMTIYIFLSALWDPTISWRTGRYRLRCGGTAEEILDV
Kind of test: Glucosylceramide synthase (GCS) enzyme assay, microsome fraction, C8 glucosylceramide quantified by Rapidfire MS/MS. The note with it: test compound 10 μM; 1.7 μM UDP-glucose, 3 μM C8 ceramide; room temperature 60 min; read-out: GCS enzyme inhibitory rate at 10 μM (%) (% of control). Type of test: biochemical. The method in brief:
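Test compound, 10 μM final, was run against human GCS from transfected Expi293F microsome fractions, using substrate solution of 6 μM C8 ceramide (in DOPC liposomes) plus 3.4 μM UDP-glucose, pH 7.5 Tris buffer, 60 min, room temperature. Product C8 glucosylceramide measured by Rapidfire MS/MS against an internal standard, % inhibition referenced to no-enzyme and DMSO wells.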

Take `Cc1cc2c(c(-c3ccccc3OCC(F)(F)F)n1)CN(c1ccc(OCC3(OC4CCCCO4)CC3)cc1)C2=O` (racemic) [Example 374, rac-6-methyl-2-[4-({1-[(oxan-2-yl)oxy]cyclopropyl}methoxy)phenyl]-4-[2-(2,2,2-trifluoroethoxy)phenyl]-2,3-dihydro-1H-pyrrolo[3,4-c]pyridin-1-one]: the inhibition at 10 µM came out at 100%.

Turning to `CC(C)(O)c1ccc(N2Cc3c(ccnc3-c3ccc(F)cc3OCC(F)(F)F)C2=O)cn1` [Example 197, 4-[4-fluoro-2-(2,2,2-trifluoroethoxy)phenyl]-2-[6-(2-hydroxypropan-2-yl)pyridin-3-yl]-2,3-dihydro-1H-pyrrolo[3,4-c]pyridin-1-one], the inhibition at 10 µM was found to be 88%. For the compound `O=C1c2cncc(-c3ccccc3OCC(F)(F)F)c2CN1c1ccc(F)cc1` [Example 87, 2-(4-fluorophenyl)-7-[2-(2,2,2-trifluoroethoxy)phenyl]-1,2-dihydro-3H-pyrrolo[3,4-c]pyridin-3-one], the inhibition at 10 µM was 86%. For the compound `O=C(c1ccc(N2Cc3c(ccnc3-c3ccc(F)cc3OCC(F)(F)F)C2=O)cc1)N1CC(F)(F)C1` [Example 181, 2-[4-(3,3-difluoroazetidine-1-carbonyl)phenyl]-4-[4-fluoro-2-(2,2,2-trifluoroethoxy)phenyl]-2,3-dihydro-1H-pyrrolo[3,4-c]pyridin-1-one], the inhibition at 10 µM was 89%. On to `CC(C)(O)c1cc2c(c(-c3ccccc3OCC(F)F)n1)CN(c1ccc(F)cc1)C2=O` [Example 356, 4-[2-(2,2-difluoroethoxy)phenyl]-2-(4-fluorophenyl)-6-(2-hydroxypropan-2-yl)-2,3-dihydro-1H-pyrrolo [3,4-c]pyridin-1-one], for which the inhibition at 10 µM is 99%. Regarding `O=C1c2ccnc(-c3ccccc3OCC(F)(F)F)c2CN1c1ccc(C2(O)CC(OCc3ccccc3)C2)cc1` (stereo not drawn) [Example 227, (cis or trans)-2-{4-[3-(benzyloxy)-1-hydroxycyclobutyl]phenyl}-4-[2-(2,2,2-trifluoroethoxy)phenyl]-2,3-dihydro-1H-pyrrolo[3,4-c]pyridin-1-one], the inhibition at 10 µM turned out to be 100%. For the compound `CC(C)(O)c1ccc(N2Cc3c(ccnc3-c3ccccc3OCC(F)(F)F)C2=O)nc1` [Example 273, 2-[5-(2-hydroxypropan-2-yl)pyridin-2-yl]-4-[2-(2,2,2-trifluoroethoxy)phenyl]-2,3-dihydro-1H-pyrrolo [3,4-c]pyridin-1-one], the inhibition at 10 µM was found to be 100%. For `CC(C)(O)c1cc2c(c(-c3ccccc3OCC(F)F)n1)CN(c1ccc(C(C)(C)C#N)cc1)C2=O` [Example 360, 2-(4-{4-[2-(2,2-difluoroethoxy)phenyl]-6-(2-hydroxypropan-2-yl)-1-oxo-1,3-dihydro-2H-pyrrolo [3,4-c]pyridin-2-yl}phenyl)-2-methylpropanenitrile], the inhibition at 10 µM was determined as 100%. On to `CC(C)(O)COc1ccc(N2Cc3c(ccnc3-c3ccccc3OCC(F)(F)F)C2=O)cn1` [Example 233, 2-[6-(2-hydroxy-2-methylpropoxy)pyridin-3-yl]-4-[2-(2,2,2-trifluoroethoxy)phenyl]-2,3-dihydro-1H-pyrrolo[3,4-c]pyridin-1-one], for which the inhibition at 10 µM is 96%. The result for `COc1ccccc1-c1nccc2c1CN(c1ccc(F)cc1)C2` [Example 172, 2-(4-fluorophenyl)-4-(2-methoxyphenyl)-2,3-dihydro-1H-pyrrolo[3,4-c]pyridine] reads 91%; that for `CN(C)C(=O)c1ccc(N2Cc3cnn(-c4ccc(F)cc4OCC(F)(F)F)c3C2)nc1` [Example 231, 6-{1-[4-fluoro-2-(2,2,2-trifluoroethoxy)phenyl]-4,6-dihydropyrrolo[3,4-c]pyrazol-5(1H)-yl}-N,N-dimethylpyridine-3-carboxamide], 61%; that for `O=C1c2ccnc(-c3ccc(F)cc3OCC(F)(F)F)c2CN1c1ccc(OC2COC2)cc1` [Example 106, 4-[4-fluoro-2-(2,2,2-trifluoroethoxy)phenyl]-2-{4-[(oxetan-3-yl)oxy]phenyl}-2,3-dihydro-1H-pyrrolo[3,4-c]pyridin-1-one], 94%. `COc1cc(F)ccc1-c1cncc2c1CN(c1ccc(F)cc1)C2=O` [Example 80, 7-(4-fluoro-2-methoxyphenyl)-2-(4-fluorophenyl)-1,2-dihydro-3H-pyrrolo [3,4-c]pyridin-3-one]: the inhibition at 10 µM is 72%. On to `Cn1cc2c(c(-c3ccccc3OCC(F)(F)F)c1=O)CN(c1ccc(OCC(C)(C)O)cc1)C2=O` [Example 350, 2-[4-(2-hydroxy-2-methylpropoxy)phenyl]-5-methyl-7-[2-(2,2,2-trifluoroethoxy)phenyl]-1H-pyrrolo[3,4-c]pyridine-3,6(2H,5H)-dione], for which the inhibition at 10 µM came to 100%. The result for `CN(C)C(=O)c1ccc(N2Cc3cnn(-c4ccccc4OCC(F)(F)F)c3C2)nc1` [Example 230, N,N-dimethyl-6-{1-[2-(2,2,2-trifluoroethoxy)phenyl]-4,6-dihydropyrrolo[3,4-c]pyrazol-5(1H)-yl}pyridine-3-carboxamide] reads 73%; that for `O=C1c2ccnc(-c3ccc(F)cc3OCC(F)(F)F)c2CN1c1ccc(O[C@H]2CCOC2)cc1` [Example 165, 4-[4-fluoro-2-(2,2,2-trifluoroethoxy)phenyl]-2-(4-{[(3S)-oxolan-3-yl]oxy}phenyl)-2,3-dihydro-1H-pyrrolo[3,4-c]pyridin-1-one], 98%; that for `CC(O)(c1ccc(N2Cc3c(ccnc3-c3ccccc3OCC(F)(F)F)C2=O)cc1)C(F)F` (single isomer, unassigned) [Example 315, (R or S)-2-[4-(1,1-difluoro-2-hydroxypropan-2-yl)phenyl]-4-[2-(2,2,2-trifluoroethoxy)phenyl]-2,3-dihydro-1H-pyrrolo[3,4-c]pyridin-1-one], 100%. For the compound `CC(c1ccc(N2Cc3c(ccnc3-c3ccc(F)cc3OCC(F)(F)F)C2=O)cc1)N1CCCC1=O` (racemic) [Example 232, rac-4-[4-fluoro-2-(2,2,2-trifluoroethoxy)phenyl]-2-{4-[1-(2-oxopyrrolidin-1-yl)ethyl]phenyl}-2,3-dihydro-1H-pyrrolo[3,4-c]pyridin-1-one], the inhibition at 10 µM came to 82%.

As for `O=C1c2ccnc(-c3ccc(F)cc3OC(F)F)c2CN1c1ccc(F)cn1` [Example 52, 4-[2-(difluoromethoxy)-4-fluorophenyl]-2-(5-fluoropyridin-2-yl)-2,3-dihydro-1H-pyrrolo[3,4-c]pyridin-1-one], the inhibition at 10 µM amounted to 67%. In the case of `CC(C)n1cc2c(c(-c3ccccc3OCC(F)(F)F)c1=O)CN(c1ccc(C(C)(C)O)cc1)C2=O` [Example 376, 2-[4-(2-hydroxypropan-2-yl)phenyl]-5-(propan-2-yl)-7-[2-(2,2,2-trifluoroethoxy)phenyl]-1H-pyrrolo[3,4-c]pyridine-3,6(2H,5H)-dione], the inhibition at 10 µM is 100%. In the case of `O=C1c2cc(C3CCCCC3)nc(-c3ccc(F)cc3OCC(F)(F)F)c2CN1c1ccc(F)cc1` [Example 381, 6-cyclohexyl-2-(4-fluorophenyl)-4-[4-fluoro-2-(2,2,2-trifluoroethoxy)phenyl]-2,3-dihydro-1H-pyrrolo [3,4-c]pyridin-1-one], the inhibition at 10 µM worked out at 95%. `O=C1c2ccnc(-c3ccc(F)cc3OCC(F)(F)F)c2CN1c1ccc(C2(O)COC2)cn1` [Example 199, 4-[4-fluoro-2-(2,2,2-trifluoroethoxy)phenyl]-2-[5-(3-hydroxyoxetan-3-yl)pyridin-2-yl]-2,3-dihydro-1H-pyrrolo[3,4-c]pyridin-1-one]: the inhibition at 10 µM was found to be 91%. The result for `O=C1c2ccnc(-c3ccc(F)cc3OCC(F)(F)F)c2CN1c1ccc(S(=O)(=O)C(F)F)cc1` [Example 139, 2-[4-(difluoromethanesulfonyl)phenyl]-4-[4-fluoro-2-(2,2,2-trifluoroethoxy)phenyl]-2,3-dihydro-1H-pyrrolo[3,4-c]pyridin-1-one] reads 96%; that for `O=C1c2ccnc(-c3ccc(F)cc3OCC(F)(F)F)c2CN1c1ccc(C2(O)CCOC2)cn1` (racemic) [Example 256, rac-4-[4-fluoro-2-(2,2,2-trifluoroethoxy)phenyl]-2-[5-(3-hydroxyoxolan-3-yl)pyridin-2-yl]-2,3-dihydro-1H-pyrrolo[3,4-c]pyridin-1-one], 97%; that for `O=C1c2ccnc(-c3ccc(F)cc3OCC(F)(F)F)c2CN1c1ccc(O[C@@H]2CCOC2)cc1` [Example 164, 4-[4-fluoro-2-(2,2,2-trifluoroethoxy)phenyl]-2-(4-{[(3R)-oxolan-3-yl]oxy}phenyl)-2,3-dihydro-1H-pyrrolo[3,4-c]pyridin-1-one], 99%. For `CC(C)(C#N)c1ccc(N2Cc3c(ccnc3-c3ccc(F)cc3OCC(F)(F)F)C2=O)cc1` [Example 269, 2-(4-{4-[4-fluoro-2-(2,2,2-trifluoroethoxy)phenyl]-1-oxo-1,3-dihydro-2H-pyrrolo[3,4-c]pyridin-2-yl}phenyl)-2-methylpropanenitrile], the inhibition at 10 µM worked out at 99%.

On to `O=C1c2ccnc(-c3ccc(F)cc3OCC(F)(F)F)c2CN1c1ccc(OC(F)(F)F)cn1` [Example 58, 4-[4-fluoro-2-(2,2,2-trifluoroethoxy)phenyl]-2-[5-(trifluoromethoxy)pyridin-2-yl]-2,3-dihydro-1H-pyrrolo[3,4-c]pyridin-1-one], for which the inhibition at 10 µM is 96%.

(Values after patent US12528802B2, “Heterocyclic compound” (Takeda Pharmaceutical Company Limited, priority 2019, dated 2026).)
